Results on 3 compounds are retold here after patent US20140090094A1, “MODULATORS OF SLC22A7” (BAYER INTELLECTUAL PROPERTY GmbH, priority 2011, published 2014).

Holding throughout (assay type): cell-based
In one experiment the target is T1, OAT1h (Homo sapiens, UniProt Q4U2R8).
T1 construct: expressed in transfected cells; host or cells: 293 cells (HEK-293), pEBTetD plasmid, doxycycline-inducible
T1 sequence (Q4U2R8 1-550 isoform Q4U2R8-2): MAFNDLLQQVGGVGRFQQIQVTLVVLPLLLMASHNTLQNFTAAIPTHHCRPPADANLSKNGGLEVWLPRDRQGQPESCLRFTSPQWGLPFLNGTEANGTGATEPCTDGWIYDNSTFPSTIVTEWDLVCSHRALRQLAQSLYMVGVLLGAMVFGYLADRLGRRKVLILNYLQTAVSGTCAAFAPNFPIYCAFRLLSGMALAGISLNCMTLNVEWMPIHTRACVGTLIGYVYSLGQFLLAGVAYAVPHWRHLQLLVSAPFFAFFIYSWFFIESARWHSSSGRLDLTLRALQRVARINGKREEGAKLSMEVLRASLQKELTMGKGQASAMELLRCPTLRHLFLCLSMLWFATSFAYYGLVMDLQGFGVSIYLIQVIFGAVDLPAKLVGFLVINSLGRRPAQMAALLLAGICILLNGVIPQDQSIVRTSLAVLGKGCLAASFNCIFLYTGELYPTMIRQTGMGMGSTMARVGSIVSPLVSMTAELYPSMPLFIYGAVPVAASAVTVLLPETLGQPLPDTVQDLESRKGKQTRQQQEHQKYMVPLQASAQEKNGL
Kind of experiment: uptake/accumulation in 293 cells expressing OAT1h. The settings on record: for clearance: 1 min uptake, 0.1 μmol/l radiotracer. On the procedure:
The trigonelline content of cell lysates was determined by LC-MS/MS. […] 293 cells transfected with pEBTetD plasmids for the expression of SLC22 family carriers as indicated were grown in dishes and incubated overnight with (expression on) or without (off) doxycyclin in standard culture medium. Cells were washed with uptake buffer, incubated (1 min, 37° C.) in uptake buffer with or without 10 μmol/l unlabeled trigonelline, washed, and lysed.
(§1) For measurement of solute uptake, cells were grown in surface culture on 60 mm polystyrol dishes (Nunclon 150288, Nunc, Roskilde, Denmark) precoated with 0.1 g/l poly-L-ornithine in 0.15 M boric acid-NaOH, pH 8.4. Cells were used for uptake experiments at a confluence of at least 70%. Uptake was measured at 37° C. Uptake buffer contains 125 mmol/l NaCl, 25 mmol/l HEPES-NaOH pH 7.4, 5.6 mmol/l (+)glucose, 4.8 mmol/l KCl, 1.2 mmol/l KH2PO4, 1.2 mmol/l CaCl2, and 1.2 mmol/l MgSO4. In glutamate efflux experiments, uptake buffer without KH2PO4 was used to avoid MS interference. After preincubation for at least 20 minutes in 4 ml of uptake buffer, the buffer was replaced with 2 ml of substrate in uptake buffer. The total substrate concentration if not indicated otherwise was 0.1 μmol/l for radiotracer assays and 10 μmol/l for unlabeled compounds. Incubation was stopped after 1 min by rinsing the cells four times each with 4 ml ice-cold uptake buffer. Radioactivity was determined, after cell lysis with 0.1% v/v Triton X-100 in 5 mmol/l TRIS-HCl pH 7.4, by liquid scintillation counting. For LCelectrospray ionization-MS/MS analysis, cells were lysed with methanol and stored at −20° C.
After centrifugation (1 min, 16000×g, 20° C.) of thawed lysates, 100 μl of the supernatant was mixed with either 10 μl unlabeled MPP+ iodide (0.5 ng/μl) or biphenyl-4-carboxylic acid (Sigma-Aldrich) as internal standard. Of this mixture, […] were analyzed by LCMS/MS on a triple quadrupole mass spectrometer (4000 Q TRAP, Applied Biosystems, Darmstadt, Germany). […] For quantification (scan time 150 ms), the optimal collision energy for argon-induced fragmentation in the second quadrupole was determined for each analyte. […] Sample analyte content was calculated from the analyte response ratio and the slope of the calibration curve, obtained by linear regression. With LC-MS quantitation, solute content of cell lysates was determined for 4 conditions (paired dishes, incubation time 1 min): a) transporter expression on, uptake buffer; b) expression off, uptake buffer; c) expression on, substrate in uptake buffer; d) expression off, substrate in uptake buffer. Acute uptake mediated by heterologously expressed carrier was then calculated as (c−a)−(d−b). […] Protein was measured by the BCA assay (Pierce) with bovine serum albumin as standard. […]

Experiment [1] concerns the target T2, OAT2r (Rattus norvegicus, UniProt Q5RLM2).
T2 construct: expressed in transfected cells
T2 sequence (Q5RLM2 1-535): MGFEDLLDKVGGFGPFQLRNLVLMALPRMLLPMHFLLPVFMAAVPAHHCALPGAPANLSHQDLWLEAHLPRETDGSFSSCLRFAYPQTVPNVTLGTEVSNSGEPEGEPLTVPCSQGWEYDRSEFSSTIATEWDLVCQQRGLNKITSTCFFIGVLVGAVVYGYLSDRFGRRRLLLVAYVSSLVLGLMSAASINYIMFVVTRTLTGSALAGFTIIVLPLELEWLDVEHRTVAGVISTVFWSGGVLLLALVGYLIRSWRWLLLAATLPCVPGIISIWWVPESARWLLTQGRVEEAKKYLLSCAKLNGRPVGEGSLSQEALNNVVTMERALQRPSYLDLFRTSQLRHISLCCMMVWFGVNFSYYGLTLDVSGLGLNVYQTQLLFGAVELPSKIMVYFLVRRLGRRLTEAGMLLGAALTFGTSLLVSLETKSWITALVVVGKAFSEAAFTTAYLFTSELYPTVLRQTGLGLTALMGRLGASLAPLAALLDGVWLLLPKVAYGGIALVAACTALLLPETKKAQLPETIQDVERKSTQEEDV
Kind of experiment: efflux of glutamate from OAT2r-expressing 293 cells (LC-MS/MS). How it is done: To test this hypothesis, 293 cells with or without expression of OAT2r were incubated 10 min in uptake buffer; then, the glutamate content of a buffer sample was determined by LC-MS/MS.
as §1

Experiment [2] has as its target T2, OAT2r. Kind of experiment: trans-stimulation of efflux of 3H-orotic acid via OAT2r. To be noted: for trans-stimulation of efflux of 3H-orotic acid (in words): 1 mmol/l compound in uptake buffer, 1 min, preloaded cells.
Experiment [3] concerns the target T2, OAT2r. Kind of experiment: time course of uptake into OAT2r-expressing 293 cells. To be noted: for clearance kin: 10 μmol/l unlabeled substrate, 37° C., OAT2r-expressing cells; for factor by which expression of OAT2r increased the clearance: kin on versus off.

Each structure is given as a SMILES string.

With `N[C@@H](CCC(=O)O)C(=O)O` [glutamate], on OAT1h, the “transport of glutamate (in words)” value is listed as “do not transport” and the clearance worked out at 2.5±0.4 μl min-1 mg protein-1. Further, at OAT2r [1] (10 min in uptake buffer, without extracellular exchange substrate), the “release of glutamate upon expression of OAT2 (in words)” value is “markedly increased release”. In addition, at OAT2r [2], the “trans-stimulation of efflux of 3H-orotic acid (in words)” value is reported as “accelerated efflux”.
`O=C(O)c1cc(=O)[nH]c(=O)[nH]1` [orotic acid] showed an intracellular plateau on OAT2r [3] (10 μmol/l unlabeled orotic acid, after 60 min, LC-MS/MS) of 5.8 nmol/mg protein. For the same compound, the “intracellular concentration corresponding to plateau” value at OAT2r [3] (calculated with an intracellular water space of 6.7 μl/mg protein) was 870 µmol/L. Moreover, at OAT2r [3] (time course), the clearance kin turned out to be 50.1±6.4 μl min-1 mg protein-1 and the “factor by which expression of OAT2r increased the clearance” value stood at 86. Also, the kout on OAT2r [3] (time course, unlabeled orotic acid, expression on) came out at 0.09 ± 0.01 min⁻¹. The clearance at OAT1h came out at 1.6±0.1 μl min-1 mg protein-1. Moreover, the “effect on efflux of glutamate (in words)” value on OAT2r [1] (1 mmol/l compound in uptake buffer, 10 min) is reported as “strongly trans-stimulated efflux of glutamate”. In addition, the “trans-stimulation of efflux of 3H-orotic acid (in words)” value at OAT2r [2] is “markedly accelerated efflux”. For the same compound, on OAT2r [2] (1 h, 37° C. preloading with 100 μmol/l 3H-orotic acid, OAT2r-expressing cells, n=4), the “cell content directly after washing” value is reported as 56±3 nmol/mg protein.
For `C[n+]1cccc(C(=O)[O-])c1` [trigonelline], at OAT2r [3] (time course), the clearance kin is 5.1±1.4 μl min-1 mg protein-1 and the “factor by which expression of OAT2r increased the clearance” value is roughly 50. For the same compound, the “accumulation of trigonelline upon carrier expression (in words)” value at OAT1h (expression of OAT1 in 293 cells, FIG. 14) is recorded as “without effect”.
